Source: US3981868A
Converted amounts (≈) assume the structure as drawn. One block for each compound: values may come before it.

Tests used:
[1] = system: basal gastric acid secretion; test: inhibition of basal gastric acid secretion (acute gastric fistula rat); assay type: in vivo, Female Sprague-Dawley rats; settings: 10 mg./kg. intraduodenal
Protocol: Inhibition of basal gastric acid secretion was determined in the acute gastric fistula rat as follows. Female Sprague-Dawley rats (Charles River Laboratories) weighing 140-160 grams are fasted in individual cages for 18-24 hours. The rats are then lightly anesthetized with ether and their front teeth extracted to avoid destruction of the plastic cannula. A midline incision is then made and the stomach and duodenum exposed. A flanged polyvinyl tube is inserted into the fundic portion of the stomach and secured with a purse string suture line using 4-0 Mersilene. The rat is then dosed by injection of the compound into the duodenum (1.0 ml. per 100 grams body weight). After dosing, the abdominal wall and skin are closed using metal wound clips. The rat is replaced in a cage containing a longitudinal slit to allow the polyvinyl tube to hang freely. An 8 ml. plastic collecting tube is attached to the flanged cannula and hangs freely below the cage. The first 30 minute sample is discarded designating this time as zero. The collecting tube is attached again and samples removed at the end of 60 and 120 minutes. The hourly samples are then transferred to a 15 ml. centrifuge tube and centrifuged for 5-10 minutes. Total and sediment volume are then recorded with the supernatant volume being used as volume of secretion. A 1 ml. or less aliquot is then removed and placed in a 50 ml. beaker containing 10 ml. of distilled water. This sample is then titrated using 0.01N NaOH to pH 7.0 using a Beckman zeromatic pH meter. Volume, titratable acidity (meq/L) and total acid output (μ eq/hour) are recorded. Percent inhibition is determined by comparison with the appropriate control. Groups of three rats were used. All compounds are administered in vehicle (0.5% methocel, 0.4% Tween 80, saline) at a constant volume of 1 ml./100 gram rat. Samples were sonicated with care to prevent overheating.

diastolic blood pressure = test: hypotensive activity in anesthetized rats (minimal dose lowering diastolic blood pressure about 10 mm.); assay type: in vivo, Male Wistar strain rats; settings: Rattus norvegicus; intravenous; dose producing a decrease of about 10 mm. in diastolic blood pressure
Protocol: This procedure is a modification of the technique described by Pike et al., Prostaglandins, Nobel Symposium 2, Stockholm, June, 1966; p. 165.
Male Wistar strain rats (Royal Hart Farms) averaging approximately 250 grams in weight were fastened to rat boards in a supine position by means of canvas vests and limb ties. The femoral area was infiltrated subcutaneously with lidocaine and the iliac artery and vein were exposed and cannulated. Arterial blood pressure (systolic/diastolic) was recorded using a Statham P23 Db pressure transducer-Offner dynograph system. To obtain a stable blood pressure, the animals were anesthetized before use with pentobarbital, 30 mg./kg. of body weight intravenously, and also were given hexamethonium bitartrate, 2 mg./kg., of body weight intravenously. The test compounds were prepared by ultrasonic dispersion in a saline-Tween 80 vehicle. A constant intravenous dose volume of 0.5 ml. was administered and test doses ranged from 0.1 to 10.0 mg./kg. of body weight. Increasing or decreasing doses were selected depending on the dose response obtained. In Table I below are set forth the minimal doses required to produce a decrease of about 10 mm. in diastolic blood pressure for typical compounds of the present invention.

[2] = system: Streptococcus pyogenes C 203; test: agar-dilution streak-plate antibacterial assay (8); assay type: cell-based; settings: C203, read-out: Minimal inhibitory conc.
Protocol: The novel compounds of the present invention are also useful as antimicrobial agents. […] In this assay, the compounds to be tested are made up to contain 2.5 mg. of test compound per milliliter of solution. Observing sterile techniques, two-fold serial dilutions are made of each test solution. One milliliter of each of the original solutions and of each of the serial dilutions is then added to 9 ml. of warm sterile nutrient agar capable of supporting growth of the bacterial test cultures. A second set of agar dilutions is prepared identical to the first except that the nutrient agar is designed to support the growth of the fungal test cultures. […] The test bacteria and yeast-like fungi are prepared for use by growing in broth overnight. The spores of the filamentous fungi are harvested from mature agar slant cultures and are suspended in sterile physiological saline solution. A loopful of each of the resulting live suspensions is then, still employing sterile techniques, streaked upon the surfaces of each of the agar plates and the resulting streaked plates are then incubated. After an appropriate period of time, each of the streaks on each of the plates is inspected visually and the extent, if any, of bacterial or fungal growth is noted. The minimal inhibitory concentration (expressed in micrograms per milliliter) is defined as the concentration of test compound causing complete inhibition of growth of any particular organism. In a representative operation, and merely by way of illustration, the minimal inhibitory concentration of typical compounds of the present invention against a variety of test organisms as determined in the above-described assay are set forth in Tables II and III below: […]

gerbil ascending colon = test: contraction of gerbil colon by dl-PGE1; settings: final concentration of 200 ng./ml.; preliminary tests

Compound: CCCCCC/C=C/[C@H]1CCC(=O)[C@@H]1CCCCCCC(=O)N(C(=O)Nc1ccc(N(C)C)cc1)c1ccc(N(C)C)cc1 (relative stereo) [4,4'-bis(dimethylamino)-N-{7-[trans-2-(1-octenyl)-5-oxocyclopentyl]-heptanoyl}carbanilide]
% Inhibition after 120 minutes, Total Acid Output [1]: 72% | % Inhibition after 120 minutes, Total Acidity [1]: 60%

MIC [2]: 5 µg/mL (≈ 12.5 µM)
Compound: CCCCCC/C=C/[C@H]1CCC(=O)[C@@H]1CCCCCCC(=O)Nc1cccnc1 (relative stereo) [N-(pyridyl-3)-9-oxo-13-trans-prostenamide]
% Inhibition after 120 minutes, Total Acid Output [1]: 54% | % Inhibition after 120 minutes, Total Acidity [1]: 30% | minimal effective dose (diastolic blood pressure): 2 to 8 mg/kg

Compound: CCCCC[C@H](O)/C=C/[C@H]1[C@H](O)CC(=O)[C@@H]1CCCCCCC(=O)O (relative stereo) [dl-PGE1, prostaglandin-E1]
muscle contraction (gerbil ascending colon): maximal muscle contraction
